Assay results reported in patent US11535585B2, “Nitrobenzyl derivatives of anti-cancer agents” (OBI PHARMA, INC., priority 2015, dated 2022).
Read-outs that look alike come from different tables or passages of the source.

Experiments:
[1] = tested as water soluble phosphate prodrug PR 104P; cited from earlier work
AKR1C3 = biological target: T1, AKR1C3 (Homo sapiens, UniProt P42330); details: cited from earlier work
T1 sequence (P42330 1-323): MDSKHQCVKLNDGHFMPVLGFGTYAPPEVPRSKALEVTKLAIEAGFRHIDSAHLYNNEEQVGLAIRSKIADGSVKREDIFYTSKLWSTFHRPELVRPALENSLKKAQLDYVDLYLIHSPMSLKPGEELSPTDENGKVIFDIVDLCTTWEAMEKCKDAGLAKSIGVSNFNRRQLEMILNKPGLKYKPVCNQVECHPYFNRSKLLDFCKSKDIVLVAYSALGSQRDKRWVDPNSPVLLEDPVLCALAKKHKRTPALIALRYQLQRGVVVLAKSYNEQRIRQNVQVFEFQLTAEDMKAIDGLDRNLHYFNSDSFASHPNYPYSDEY

[2] = system: H460 non cell lung cancer human tumor cell line; experiment: In vitro human tumor cell line cytotoxicity / proliferation assay (AlamarBlue) with and without AKR1C3 inhibitor; format: cell-based
Procedure: In vitro proliferation data on the H460 […] human tumor cell line is determined based on IC50 measured by exposure of compounds at various concentrations for 2 hrs followed by a wash step and addition of fresh media followed by growth and cell viability staining and comparison to a media only treated control.
Specifically, exponentially growing cells are seeded at a density of 4×10^3 cells per well in a 96 well plate and incubated at 37° C. in 5% CO2, 95% air and 100% relative humidity for 24 hours prior to addition of test compounds. Compounds are solubilized in 100% DMSO at 200 times the desired final test concentration. At the time of drug addition, compounds are further diluted to 4 times the desired final concentration with complete medium. Aliquots of 50 μl of compound at specified concentrations are added to microtiter wells already containing 150 μl of medium, resulting in the final drug concentration reported. After drug addition the plates are incubated 72 hrs at 37° C., 5% CO2, 95% air and 100% relative humidity. At the end of this incubation, the viable cells are quantified using the AlamarBlue assay. The drug concentration resulting in growth inhibition of 50% (IC50) is calculated using Prism software (Irvine, Calif.).
Cell proliferation were performed in the presence (3 micromolar) and absence of a specific inhibitor of the AKR 1C3 enzyme. The case of added inhibitor was added to cell culture 2 hours prior to compound treatment. The inhibitor used was compound 36 in Flanagan, et al, Bioorganic and Medicinal Chemistry (2014) p 962-977.
Proliferation data of TH compounds in H460 in the presence/absence of the specific AKR 1C3 inhibitor

[3] = NCI-H460, H460 cells, absence of specific AKR 1C3 inhibitor, read-out: IC50 (without inhibitor)
[4] = NCI-H460, H460 cells, presence of 3 micromolar specific AKR 1C3 inhibitor added 2 hours prior to compound treatment, read-out: IC50 (with inhibitor)

Row | Structure (SMILES) | efficacy in clinical trials [1] | substrate for AKR1C3 (AKR1C3) | IC50 [2, 3] | IC50 [2, 4] | IC50 ([2]; NCI-H460, read-out: IC50 (without inhibitor))
1 | CS(=O)(=O)OCCN(CCBr)c1c(C(=O)NCCO)cc([N+](=O)[O-])cc1[N+](=O)[O-] [PR 104] | ineffective | weak substrate |  |  | 
2 | CC(=O)O[C@H]1C(=O)[C@@]2(C)[C@H]([C@H](OC(=O)c3ccccc3)[C@]3(O)C[C@H](OC(=O)[C@H](OC(=O)N(C)CCN(C)C(=O)OCc4ccc([N+](=O)[O-])c(Oc5ccc6ncccc6c5)c4)[C@@H](NC(=O)c4ccccc4)c4ccccc4)C(C)=C1C3(C)C)[C@]1(OC(C)=O)CO[C@@H]1C[C@@H]2O [TH3047] |  |  | 30 nM | 30000 nM | 
3 | CC(=O)O[C@H]1C(=O)[C@@]2(C)[C@H]([C@H](OC(=O)c3ccccc3)[C@]3(O)C[C@H](OC(=O)[C@H](OC(=O)N(C)CCN(C)C(=O)OC(C)c4ccc([N+](=O)[O-])c(Oc5ccc6ncccc6c5)c4)[C@@H](NC(=O)c4ccccc4)c4ccccc4)C(C)=C1C3(C)C)[C@]1(OC(C)=O)CO[C@@H]1C[C@@H]2O (stereo partly shown) [TH3054] |  |  | 30 nM | 91000 nM | 
4 | CCN(CCCCBr)P(=O)(OCc1ccc([N+](=O)[O-])c(Oc2ccc(-c3ccccc3)cc2)c1)OCC1OC(n2ccc(N)nc2=O)C(F)(F)C1O (stereo not shown) [TH3057] |  |  |  |  | 200 nM
